{"source": "paper PMC5349447", "about": "“Applying a high-throughput fluorescence polarization assay for the discovery of chemical probes blocking La:RNA interactions in vitro and in cells” (PLoS ONE, 2017)", "molecules": {"B1": {"name": "fPolyU (ssRNA)", "RNA": "UGCUGUUUU"}, "B2": {"name": "fD1 (structured_RNA)", "RNA": "GCUGCCCAGGAAGAGCCCCAGCCAUGGAACACCAGCUCCUGUGCUGC"}, "B3": {"name": "TOP-mu2 (ssRNA)", "RNA": "GGCCCUUUUCCCACCCCCUAGCGCCGCUGGGCCU"}, "B4": {"name": "TOPf (structured_RNA)", "RNA": "CCCUUUUCCCACCCCCUAGCGCCGCUGGGCCU"}, "B5": {"name": "capTOPf (structured_RNA)", "RNA": "B4 RNA", "modifications": "5' m7G cap"}}, "key": {"SCC 22B cells [1]": {"system": "SCC 22B cells", "assay": "Cell toxicity, CyQUANT cell number, SCC 22B", "type": "cell-based, human", "conditions": "for effect on SCC 22B cell numbers: 48 h, 12.5-150 μM", "experimental": "(§1) Normal fibroblast MRC5 and human embryonic kidney HEK293 cells were purchased from ATCC. Head and neck squamous cell carcinoma cell lines UM-SCC 22A (SCC 22A) and UM-SCC 22B (SCC 22B) were described elsewhere. MRC5 cells were cultured in EMEM plus 10% FBS; SCC 22A, SCC 22B, and HEK293 cells were cultured in advanced DMEM (Gibco) containing 2 mM L-glutamine (Life Technology) and 10% FBS. All cell lines were tested for mycoplasma contamination by applying a MycoSensor PCR Assay kit according to the manufacturer’s instructions (Agilent Technologies).\n(§2) To test for cell toxicity the compounds were dissolved in 100% DMSO to a concentration of 100 mM. Subsequently, compounds were diluted in media to 10 mM (10% DMSO), 1 mM (1% DMSO) and tested at 150, 125, 100, 75, 50, 25 μM in SCC 22B and MRC5 cells. To reach this concentration compounds (stock 1 mM, 1% DMSO) were diluted in the cell culture dish (96-well format, 100 μl final volume) as follows: 150 μM = 6.7 fold (final DMSO: 0.15%); 125 μM = 8.0 fold (final DMSO: 0.125%); 100 μM = 10 fold (final DMSO: 0.1%); 75 μM = 13.3 fold (final DMSO: 0.075%); 50 μM = 20 fold (final DMSO: 0.05%); and 25 μM = 40 fold (final DMSO: 0.025%). As a control the highest DMSO concentration of 0.15% was used. Cells were cultured in appropriate media (see above) for 48h. Subsequently, cells were washed twice with 1x PBS and quantified after staining with fluorescence dye (CyQUANT®, Life Technologies). For this experiments 3x10^4 of MRC5 and 1x10^4 SCC 22B cells were plate the day before the experiment."}, "La-WT:fD1-RNA complex": {"system": "T1, La-WT:fD1-RNA complex", "T1 construct": "His; made in house; host or cells: E. coli BL21", "assay": "EMSA, compound competition, La-WT:fD1", "type": "binding, human", "conditions": "La-WT 60 nM, fD1 50 nM", "experimental": "12% native TBE polyacrylamide gels were prepared in a Mini-PROTEAN Tetra Handcast System (BioRad). The gel was pre-run for 30 min at 140 V in 1x TBE buffer (45 mM Tris/HCl pH 8.5, 45 mM boric acid, 1 mM EDTA). To prepare the RNA-mix, fluorescence labeled RNA oligoribonucleotides (oligos) were diluted in fluorescence polarization buffer (20 mM Tris/HCl (pH 7.4), 150 mM NaCl, 3.0 mM MgCl2, 0.5 mM EDTA, 0.05% (v/v) IGEPAL), mixed for 10 min at 80°C, and then immediately placed on ice for at least 5 min. All RNA oligos were used at a final concentration of 50 nM. Recombinant La protein was diluted in D-buffer (20 mM Tris/ HCl (pH 7.4), 150mM NaCl, 3mM MgCl2, 0.5mM EDTA, 5% glycerol) and placed on ice until use.\nLa titration was performed at final concentrations of 20, 40, 60, 100, 200, 300, 400, 500, 600 nM La. Three different La concentrations were used for compound studies: 60 nM for fD1 RNA, 200 nM for fPolyU RNA, and 150 nM for TOPf RNA studies. Two μl of diluted compound (diluted in 100% DMSO) or 2 μl 100% DMSO (control reaction) was combined with 8 μl La-mix in a 96-well plate. 10 μl RNA-mix was added, mixed for 2 min, and incubated for 10 min at RT in the dark. Final concentrations in the reaction: 18 mM Tris/HCl (pH 7.4), 135 mM NaCl, 2.7 mM MgCl2, 0.45 mM EDTA, 0.025% (v/v) IGEPAL, 2% glycerol, 10% DMSO). Samples were loaded onto the pre-run gel without any loading buffer. Gels were run at 160 V for 40 min in the dark. The gels were carefully transferred to a clear plastic wrap and scanned using a Typhoon FLA900 imager. The La-RNA complex (La-RNP) formation was quantified using the ImageQuant TL software.\nNext we used our established EMSA to test whether compound C2 and C6 can compete against the three RNA oligos: fD1, fPolyU, and TOPf. All of the EMSA reactions were loaded in the following order: lane 1 contains the RNA oligo alone; lane 2 contains the RNA oligo plus La protein at concentration that shifts 50% of the RNA oligo (positive control); lanes 3–9 contain the RNA oligo, La protein and decreasing concentrations of the compound; and lane 10 contains the RNA oligo and the highest compound concentration (negative control)."}, "MRC5 cells": {"system": "MRC5 cells", "assay": "Cell toxicity, CyQUANT cell number, MRC5", "type": "cell-based, human", "conditions": "48 h, up to 150 μM", "experimental": "as §1, §2"}, "SCC 22A cells": {"system": "SCC 22A cells", "set-up": "method as in PMID 27105491", "conditions": "used as treatment concentration, read-out: cisplatin IC50; cited from earlier work"}, "SCC 22B cells [2]": {"system": "SCC 22B cells", "assay": "Cisplatin sensitization, CyQUANT, SCC 22B", "type": "cell-based, human", "conditions": "SCC 22B", "experimental": "To test whether compound C2.01 sensitizes cells for cisplatin, cells were treated with 0.2% DMSO alone, cisplatin at 4, 8, 16, 32 or 64 μM concentration alone or in combination with 50 μM compound C2.01. The half maximal inhibitory concentration (IC50) of cisplatin was determined by treating SCC 22B cells with increasing cisplatin (Selleckchem) concentrations or vehicle (DMSO) for 48 h (96-well format) as described recently. For this experiments 1x10^4 SCC 22B cells were plated the day before the experiment. DMSO or C2.01 was added to a final concentration of DMSO (0.05%) and C2.01 (50 μM). Six hours later the different cisplatin concentrations were added. The highest DMSO concentration of 0.25% was used in the control for cisplatin and C2.01 double treatment. Subsequently, cells were washed twice with 1x PBS and quantified after staining with fluorescence dye (CyQUANT®, Life Technologies) 48 after the initial C2.01 treatment."}, "[3]": {"molecular_target": "T2, La-WT (La autoantigen, LARP3) (human, UniProt P05455 1-408)", "T2 sequence": "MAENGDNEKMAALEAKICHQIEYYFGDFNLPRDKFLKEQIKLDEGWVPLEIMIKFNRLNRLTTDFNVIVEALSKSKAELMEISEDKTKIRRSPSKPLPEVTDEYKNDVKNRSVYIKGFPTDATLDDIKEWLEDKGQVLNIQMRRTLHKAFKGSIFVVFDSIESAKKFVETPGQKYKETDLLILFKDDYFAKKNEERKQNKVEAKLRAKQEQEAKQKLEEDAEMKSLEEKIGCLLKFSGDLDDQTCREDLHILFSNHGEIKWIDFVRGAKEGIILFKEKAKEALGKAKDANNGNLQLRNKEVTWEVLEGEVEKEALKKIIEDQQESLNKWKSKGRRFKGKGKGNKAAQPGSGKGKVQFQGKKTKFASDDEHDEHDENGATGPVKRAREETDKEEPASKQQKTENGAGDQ", "assay": "EMSA; EMSA: about 20 mM Tris-HCl pH 7.4, 150 mM NaCl, 3 mM MgCl2, 0.5 mM EDTA, IGEPAL, glycerol, 50 nM RNA, RT 10 min (with compounds: 18 mM Tris, 135 mM NaCl, 2.7 mM MgCl2, 0.45 mM EDTA, 0.025% IGEPAL, 2% glycerol, 10% DMSO); FP: 20 mM Tris-HCl pH 7.5, 3 mM MgCl2, 0.5 mM EDTA, 150 mM NaCl, 0.05% IGEPAL, 100 ug/ml BGG, RT 15 min", "conditions": "protein: recombinant, tags: His"}, "La-RRM1+2": {"molecular_target": "T3, La-RRM1+2 (human, UniProt P05455 111-348)", "T3 sequence": "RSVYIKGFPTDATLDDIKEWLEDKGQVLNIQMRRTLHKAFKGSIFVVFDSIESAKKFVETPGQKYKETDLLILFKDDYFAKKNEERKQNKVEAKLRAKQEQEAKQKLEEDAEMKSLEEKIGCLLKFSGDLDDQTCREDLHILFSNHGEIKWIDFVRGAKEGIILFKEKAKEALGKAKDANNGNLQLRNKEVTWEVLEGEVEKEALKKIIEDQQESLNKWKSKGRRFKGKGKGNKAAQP", "assay": "EMSA; EMSA: about 20 mM Tris-HCl pH 7.4, 150 mM NaCl, 3 mM MgCl2, 0.5 mM EDTA, IGEPAL, glycerol, 50 nM RNA, RT 10 min (with compounds: 18 mM Tris, 135 mM NaCl, 2.7 mM MgCl2, 0.45 mM EDTA, 0.025% IGEPAL, 2% glycerol, 10% DMSO); FP: 20 mM Tris-HCl pH 7.5, 3 mM MgCl2, 0.5 mM EDTA, 150 mM NaCl, 0.05% IGEPAL, 100 ug/ml BGG, RT 15 min", "conditions": "protein: recombinant, tags: His"}, "[4]": {"molecular_target": "T2, La-WT (La autoantigen, LARP3)", "assay": "competition; EMSA vs TOPf; EMSA: about 20 mM Tris-HCl pH 7.4, 150 mM NaCl, 3 mM MgCl2, 0.5 mM EDTA, IGEPAL, glycerol, 50 nM RNA, RT 10 min (with compounds: 18 mM Tris, 135 mM NaCl, 2.7 mM MgCl2, 0.45 mM EDTA, 0.025% IGEPAL, 2% glycerol, 10% DMSO); FP: 20 mM Tris-HCl pH 7.5, 3 mM MgCl2, 0.5 mM EDTA, 150 mM NaCl, 0.05% IGEPAL, 100 ug/ml BGG, RT 15 min", "conditions": "protein: recombinant; tags: His; label: none"}}, "data": [{"molecule": "O=C(O)c1ccccc1C(=O)c1ccc2ccccc2c1O", "note": "[C2.02, 2-(1-hydroxy-2-naphthoyl)benzoic acid]", "values": [{"measurement": "effect on SCC 22B cell numbers", "setting": "SCC 22B cells [1]", "result": "no effect"}, {"measurement": "competition for La:fD1 interaction (EMSA), in words", "setting": "La-WT:fD1-RNA complex", "result": "lower concentration"}, {"measurement": "toxic effect on MRC5 cells (normal fibroblasts)", "setting": "MRC5 cells", "result": "toxic effect"}]}, {"molecule": "CC(C)COC(=O)c1ccc2c(c1)C1C=CCC1C(C(=O)O)N2", "note": "(centres unmarked) [C6.01, 8-(isobutoxycarbonyl)-3a,4,5,9b-tetrahydro-3H-cyclopenta[c]quinoline-4-carboxylic acid]", "values": [{"measurement": "effect on SCC 22B cell numbers", "setting": "SCC 22B cells [1]", "result": "reduced SCC 22B cell numbers even at low concentrations"}, {"measurement": "selectivity: cancer cell numbers compared to effect on normal MRC5 cells", "setting": "SCC 22B cells [1]; SCC 22B versus MRC5, 48 h", "result": "preferentially reduced cancer cell numbers"}, {"measurement": "competition for La:fD1 interaction (EMSA), in words", "setting": "La-WT:fD1-RNA complex", "result": "slightly lower concentrations than C6.00"}, {"measurement": "toxic effect on MRC5 cells (normal fibroblasts)", "setting": "MRC5 cells", "result": "toxic effect"}]}, {"molecule": "CCCCOC(=O)c1ccc2c(c1)C1C=CCC1C(C(=O)O)N2", "note": "(centres unmarked) [C6.02, 8-(butoxycarbonyl)-3a,4,5,9b-tetrahydro-3H-cyclopenta[c]quinoline-4-carboxylic acid]", "values": [{"measurement": "effect on SCC 22B cell numbers", "setting": "SCC 22B cells [1]", "result": "reduced SCC 22B cell numbers even at low concentrations"}, {"measurement": "competition for La:fD1 interaction (EMSA), in words", "setting": "La-WT:fD1-RNA complex", "result": "slightly lower concentrations than C6.00"}, {"measurement": "toxic effect on MRC5 cells (normal fibroblasts)", "setting": "MRC5 cells", "result": "toxic effect"}]}, {"molecule": "N.N.[Cl][Pt][Cl]", "note": "[cisplatin]", "values": [{"measurement": "IC50", "setting": "SCC 22A cells", "result": 12000, "unit": "nM"}, {"measurement": "IC50", "setting": "SCC 22B cells [2]; pretreatment with 50 μM C2.01, 48 hours", "result": 18000, "unit": "nM"}, {"measurement": "IC50", "setting": "SCC 22B cells [2]; vehicle (DMSO) pretreatment, 48 hours", "result": 32000, "unit": "nM"}]}, {"molecule": "B1", "values": [{"measurement": "Kd", "setting": "[3]; no structure predicted", "result": "138 ± 12.6", "unit": "nM"}, {"measurement": "binding result", "setting": "La-RRM1+2; no structure predicted", "result": "no binding"}]}, {"molecule": "B2", "values": [{"measurement": "Kd", "setting": "[3]; hairpin (mfold prediction)", "result": "85 ± 7.5", "unit": "nM"}, {"measurement": "Kd", "setting": "La-RRM1+2; hairpin (mfold prediction)", "result": "81.7 ± 12.6", "unit": "nM"}]}, {"molecule": "B3", "values": [{"measurement": "binding result", "setting": "[4]", "result": "binds"}]}, {"molecule": "B4", "values": [{"measurement": "Kd", "setting": "[3]; mfold predicted structure", "result": "147 ± 35.1", "unit": "nM"}]}, {"molecule": "B5", "values": [{"measurement": "Kd", "setting": "[3]", "result": "183 ± 15.3", "unit": "nM"}]}]}
